Results published in ChEMBL document CHEMBL1201862, “PubChem BioAssay data set” (2004).
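Growth conditions: 96-well plates. Treatment: test compound, 48 hours, 5 concentrations. Analysis: linear interpolation between bracketing concentrations; unreached endpoints set to highest concentration. GI50 = concentration required for 50% inhibition of growth.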 The source made the active and inactive calls. Rule as the data show it: active = GI50 up to about 1.1 µM and inactive = higher.

Experiments:
Assay in all cases: DTP human tumour cell line panel, 48 h
CCRF-CEM = tested on: CCRF-CEM
HOP-92 = tested on: HOP-92
IGROV-1 = tested on: IGROV-1
KM12 = tested on: KM12
LOX IMVI = tested on: LOX IMVI
MCF7 = tested on: MCF7
MDA-MB-231 = tested on: MDA-MB-231
NCI-H226 = tested on: NCI-H226
OVCAR-3 = tested on: OVCAR-3
OVCAR-4 = tested on: OVCAR-4
OVCAR-8 = tested on: OVCAR-8
RPMI-8226 = tested on: RPMI-8226
SF-268 = tested on: SF-268
SK-MEL-5 = tested on: SK-MEL-5
SK-OV-3 = tested on: SK-OV-3
SNB-19 = tested on: SNB-19
SNB-75 = tested on: SNB-75
SR = tested on: SR
T47D = tested on: T47D
UACC-62 = tested on: UACC-62

Measured: GI50

CC1=[N+]([O-])C(C)(C)N(O)C1(C)C
inactive: CCRF-CEM > 100 µM | HOP-92 > 100 µM | IGROV-1 > 100 µM | KM12 > 100 µM | LOX IMVI > 100 µM | MCF7 > 100 µM | MDA-MB-231 > 100 µM | NCI-H226 > 100 µM | OVCAR-3 > 100 µM | OVCAR-4 > 100 µM | OVCAR-8 > 100 µM | RPMI-8226 > 100 µM | SF-268 > 100 µM | SK-MEL-5 > 100 µM | SK-OV-3 > 100 µM | SNB-19 > 100 µM | SNB-75 > 100 µM | SR > 100 µM | T47D > 100 µM | UACC-62 > 100 µM

COc1c2ccccc2c(OC)c2nc(C)ccc12
inactive: CCRF-CEM 23.7 µM | HOP-92 > 100 µM | IGROV-1 > 100 µM | KM12 > 100 µM | LOX IMVI 23.7 µM | MCF7 > 74 µM | MDA-MB-231 > 100 µM | NCI-H226 > 100 µM | OVCAR-3 > 100 µM | OVCAR-4 > 100 µM | OVCAR-8 > 100 µM | RPMI-8226 81.8 µM | SF-268 > 100 µM | SK-MEL-5 71.4 µM | SK-OV-3 > 100 µM | SNB-19 > 100 µM | SNB-75 > 100 µM | SR 30.8 µM | T47D > 100 µM | UACC-62 > 81.8 µM

O=C(NO)c1ccc(C(=O)NO)cc1
inactive: CCRF-CEM 31.3 µM | HOP-92 82.2 µM | IGROV-1 > 100 µM | KM12 79.8 µM | LOX IMVI > 100 µM | MCF7 > 100 µM | MDA-MB-231 43.6 µM | NCI-H226 > 100 µM | OVCAR-3 32.4 µM | OVCAR-4 > 100 µM | OVCAR-8 30.8 µM | RPMI-8226 30.1 µM | SF-268 58.3 µM | SK-MEL-5 81.7 µM | SK-OV-3 12 µM | SNB-19 > 100 µM | SNB-75 8.2 µM | SR 27.4 µM | T47D 30.3 µM | UACC-62 > 100 µM

COc1nc(NC2OC(COC(C)=O)C(OC(C)=O)C(OC(C)=O)C2OC(C)=O)c(/N=C/C=N/c2c(NC3OC(COC(C)=O)C(OC(C)=O)C(OC(C)=O)C3OC(C)=O)nc(OC)n(C)c2=O)c(=O)n1C (stereo not given)
inactive: CCRF-CEM > 100 µM | HOP-92 39 µM | IGROV-1 > 100 µM | KM12 > 100 µM | LOX IMVI > 100 µM | MCF7 > 100 µM | MDA-MB-231 > 100 µM | NCI-H226 97.5 µM | OVCAR-3 > 100 µM | OVCAR-4 > 100 µM | OVCAR-8 > 100 µM | RPMI-8226 > 100 µM | SF-268 > 70.3 µM | SK-MEL-5 > 100 µM | SK-OV-3 > 88.3 µM | SNB-19 48.4 µM | SNB-75 17 µM | SR > 100 µM | T47D > 100 µM | UACC-62 > 100 µM

C#CCOC(=O)c1ccc(OC(C)=O)cc1
inactive: CCRF-CEM > 100 µM | HOP-92 > 100 µM | IGROV-1 > 100 µM | KM12 > 100 µM | LOX IMVI > 100 µM | MCF7 > 100 µM | MDA-MB-231 > 100 µM | NCI-H226 > 100 µM | OVCAR-3 > 100 µM | OVCAR-4 > 100 µM | OVCAR-8 > 100 µM | RPMI-8226 > 100 µM | SF-268 > 100 µM | SK-MEL-5 > 100 µM | SK-OV-3 > 100 µM | SNB-19 > 100 µM | SNB-75 > 100 µM | SR > 100 µM | T47D > 100 µM | UACC-62 > 100 µM

CSC(CC(=O)O)C(=O)O (stereo not given)
inactive: CCRF-CEM > 100 µM | HOP-92 > 100 µM | IGROV-1 > 100 µM | KM12 > 100 µM | LOX IMVI > 100 µM | MCF7 > 100 µM | MDA-MB-231 > 100 µM | NCI-H226 > 100 µM | OVCAR-3 > 100 µM | OVCAR-4 > 100 µM | OVCAR-8 > 100 µM | RPMI-8226 > 100 µM | SF-268 > 100 µM | SK-MEL-5 > 100 µM | SK-OV-3 > 100 µM | SNB-19 > 100 µM | SNB-75 > 100 µM | SR > 100 µM | T47D > 100 µM | UACC-62 > 100 µM

Oc1ccc2c(c1)-c1c(c3cc(O)ccc3n1CCN1CCOCC1)CC2
inactive: CCRF-CEM 22.8 µM | HOP-92 26.1 µM | IGROV-1 24.2 µM | KM12 32.7 µM | LOX IMVI 17.6 µM | MCF7 18.7 µM | MDA-MB-231 17.6 µM | NCI-H226 18.5 µM | OVCAR-3 20.7 µM | OVCAR-4 25.4 µM | OVCAR-8 30.4 µM | RPMI-8226 24.7 µM | SF-268 44.8 µM | SK-MEL-5 16.6 µM | SK-OV-3 23.9 µM | SNB-19 29 µM | SNB-75 19.5 µM | SR 18.4 µM | T47D 18.8 µM | UACC-62 16.7 µM

COC(=O)C1CC23CCCN4CCC5(c6ccccc6N(C=O)C15CC2)C43 (stereo not given)
inactive: CCRF-CEM > 100 µM | HOP-92 > 100 µM | IGROV-1 > 100 µM | KM12 > 100 µM | LOX IMVI > 100 µM | MCF7 > 100 µM | MDA-MB-231 > 100 µM | NCI-H226 > 100 µM | OVCAR-3 > 100 µM | OVCAR-4 > 100 µM | OVCAR-8 > 100 µM | RPMI-8226 > 100 µM | SF-268 > 100 µM | SK-MEL-5 > 100 µM | SK-OV-3 > 100 µM | SNB-19 > 100 µM | SNB-75 > 100 µM | SR > 100 µM | T47D > 100 µM | UACC-62 > 100 µM

CC(=O)Nc1ccc(S(=O)(=O)[N-]C2C(=O)c3ccccc3C(=O)C2[n+]2ccccc2)cc1 (stereo not given)
inactive: CCRF-CEM 15.1 µM | HOP-92 17.4 µM | IGROV-1 15 µM | KM12 14.6 µM | LOX IMVI 63.4 µM | MCF7 16.8 µM | MDA-MB-231 26.6 µM | NCI-H226 > 100 µM | OVCAR-3 16.4 µM | OVCAR-4 15.5 µM | OVCAR-8 17.6 µM | RPMI-8226 17.5 µM | SF-268 18.5 µM | SK-MEL-5 3.87 µM | SK-OV-3 94.8 µM | SNB-19 14.3 µM | SNB-75 16.1 µM | SR 13.5 µM | T47D 47.6 µM | UACC-62 14.8 µM

C=C(C)C(=O)O[C@H]1CC2(CO)O[C@@H]2CC/C(COC(C)=O)=C/C2OC(=O)C(=C)[C@@H]21 (stereo not given in full)
inactive: CCRF-CEM 15.7 µM | HOP-92 26.4 µM | IGROV-1 > 64.6 µM | KM12 > 85.3 µM | LOX IMVI 23.9 µM | MCF7 11.4 µM | MDA-MB-231 61.4 µM | NCI-H226 > 46.1 µM | OVCAR-3 30.2 µM | OVCAR-4 39.6 µM | OVCAR-8 22 µM | RPMI-8226 7.16 µM | SF-268 > 100 µM | SK-MEL-5 28.3 µM | SK-OV-3 > 100 µM | SNB-19 > 100 µM | SNB-75 59.7 µM | SR 16.9 µM | T47D 29.5 µM | UACC-62 39.5 µM
